{"source": "patent US5241047A", "about": "“Synthetic peptides and mixtures thereof for detecting HIV antibodies” (BioChem Pharma Inc., priority 1990, dated 1993)", "key": {"HIV-1 antibodies [1]": {"system": "HIV-1 antibodies", "experiment": "ELISA with peptide-coated wells, HIV-1 antibody positive samples (diluted plasma pool, seroconversion samples)", "type": "binding, human", "experimental": "(§1) A preferred convenient and classical technique for the determination of antibodies against HIV-1 or HIV-2 using a peptide or a peptide mixture of the present invention is an enzyme-linked immunosorbent assay (ELISA). In this assay, for example, a peptide, peptide mixture or combination of the present invention is adsorbed onto, or covalently coupled to, the wells of a microtiter plate. The wells are then treated with the sera or analyte to be tested. After washing, antihuman IgG or antihuman IgM labeled with peroxidase is added to the wells. The determination of the peroxidase is performed with a corresponding substrate, e.g., with o-phenylene diamine. Without departing from the usefulness of the illustrative assay, the peroxidase can be exchanged by another label, e.g., by a radioactive, fluorescence chemiluminescence or infrared emitting label.\n(§2) O.D. Values were obtained at 450 nm and the blank values measured with the sample dilution buffer were not subtracted.\n(§3) Samples NEIA-2*2, BBI-1-162 to 168, 87B140, 87L139, 87V103 are all negative for HIV antibodies. Sample LSPQ-S9-1 is an early seroconverter (HIV-1). The series labeled CAP-113 to CAP-120 corresponds to a pool of seven HIV-1 positive plasma samples serially diluted with an HIV-negative plasma. CAP-113 is the pool diluted 50-fold with the HIV-negative plasma; CAP-114 is diluted 100-fold; CAP-115 is diluted 200-fold; etc. Similarly, the series labeled CAP-222 to CAP-230 corresponds to a pool of seven HIV-2 confirmed seropositive plasma samples. CAP-222 is diluted by 50 with an HIV-negative plasma; CAP-223 by 100; etc. Before the assay is done, each sample, including the CAP-series, is further diluted by 50 with the sample dilution buffer. In these tests, the cut-off for seropositivity is defined as the sum of the O.D. value for sample NEIA-2*2 plus 0.100.\nEach well of the microtiter plate is saturated with 100 μl of a solution containing a peptide or mixture of peptides (5 μg/ml) and left overnight. The wells are emptied and washed twice with a washing buffer (Tris, 0.043M; NaCl, 0.5M; thimerosal, 0.01% w/v; Tween 20, 0.05% v/v; pH 7.4). The wells are then saturated with 0.35 ml of washing buffer for 1 hr. at 37° C. and washed once with the same buffer. Serum samples to be analyzed are diluted with specimen buffer (washing buffer plus casein, 0.05% w/v). The wells are rinsed with washing buffer prior to the addition of the diluted serum sample (0.1 ml). These are left to incubate for 1 hr. at room temperature. The wells are then emptied, washed twice rapidly and then once for two minutes with washing buffer. […] The wells are then emptied and washed twice rapidly with washing buffer and then five times in which the buffer was in contact with the well 2 minutes per washing. The substrate solution (3,3',5,5'-tetramethylbenzidine, 8 mg per ml of DMSO) is diluted with 100 volumes 0.1M citrate-acetate buffer, pH 5.6 containing 0.1% v/v of 30% H2 O2 and added to each well (0.1 ml per well). After 10 minutes the contents of each well is treated with 0.1 ml 2N H2 SO4 and the optical density read at 450 nm. All determinations are done in duplicate. […]"}, "HIV-2 antibodies": {"system": "HIV-2 antibodies", "experiment": "ELISA with peptide-coated wells, HIV-2 seropositive plasma pool serially diluted", "type": "binding, human", "conditions": "Test 314", "experimental": "as §1, §2, §3\n(§4) Each well of the microtiter plate is saturated with 100 μl of a solution containing a peptide or mixture of peptides (5 μg/ml) and left overnight. The wells are emptied and washed twice with a washing buffer (Tris, 0.043M; NaCl, 0.5M; thimerosal, 0.01% w/v; Tween 20, 0.05% v/v; pH 7.4). The wells are then saturated with 0.35 ml of washing buffer for 1 hr. at 37° C. and washed once with the same buffer. Serum samples to be analyzed are diluted with specimen buffer (washing buffer plus casein, 0.05% w/v). The wells are rinsed with washing buffer prior to the addition of the diluted serum sample (0.1 ml). These are left to incubate for 1 hr. at room temperature. The wells are then emptied, washed twice rapidly and then once for two minutes with washing buffer. […] The wells are then emptied and washed twice rapidly with washing buffer and then five times in which the buffer was in contact with the well 2 minutes per washing. The substrate solution (3,3',5,5'-tetramethylbenzidine, 8 mg per ml of DMSO) is diluted with 100 volumes 0.1M citrate-acetate buffer, pH 5.6 containing 0.1% v/v of 30% H2 O2 and added to each well (0.1 ml per well). After 10 minutes the contents of each well is treated with 0.1 ml 2N H2 SO4 and the optical density read at 450 nm. All determinations are done in duplicate.\n(§5) Peptide cocktails were prepared by mixing together equal volumes of two peptide solutions each at 10 ug/ml. One cocktail used peptides BCH-87c and BCH-202c and the other cocktail was a mixture of BCH-87ck and BCH-202ck. Each cocktail was used to coat two series of plates as described earlier."}, "HIV antibodies": {"system": "HIV antibodies", "experiment": "ELISA with peptide-coated wells, samples negative for HIV antibodies or not described", "type": "binding, human", "experimental": "as §1, §2, §3, §4, §5"}, "HIV-1 antibodies [2]": {"system": "HIV-1 antibodies", "conditions": "cited from earlier work"}}, "note": "Positions of bridges follow the written chain, without caps; N, C: chain ends. Residues, ends and D or L forms follow the SMILES beside them.", "data": [{"molecule": "CC[C@H](C)[C@H](NC(=O)CNC(=O)[C@H](CC(C)C)NC(=O)[C@H](CC(C)C)NC(=O)[C@H](CCC(N)=O)NC(=O)[C@H](CCC(N)=O)NC(=O)[C@H](CC(=O)O)NC(=O)[C@H](CCCCN)NC(=O)[C@H](CC(C)C)NC(=O)[C@H](Cc1ccc(O)cc1)NC(=O)[C@H](CCCNC(=N)N)NC(=O)[C@H](CCC(=O)O)NC(=O)[C@@H](NC(=O)[C@H](C)NC(=O)[C@H](CC(C)C)NC(=O)[C@@H](NC(=O)[C@H](CCCCN)NC(=O)[C@@H](N)CCCCN)[C@@H](C)CC)C(C)C)C(=O)N[C@@H](Cc1c[nH]c2ccccc12)C(=O)NCC(=O)N[C@H]1CSSC[C@@H](C(=O)N[C@H](C(=O)N[C@H](C(=O)N[C@@H](C)C(=O)N[C@H](C(=O)N2CCC[C@H]2C(=O)N[C@@H](Cc2c[nH]c3ccccc23)C(=O)N[C@@H](CC(N)=O)C(=O)N[C@@H](C)C(=O)N[C@@H](CO)C(=O)O)C(C)C)[C@@H](C)O)[C@@H](C)O)NC(=O)[C@H]([C@@H](C)CC)NC(=O)[C@H](CC(C)C)NC(=O)[C@H](CCCCN)NC(=O)CNC(=O)[C@H](CO)NC1=O", "note": "[BCH-266] (H-KKILAVERYLKDQQLLGIWGCSGKLICTTAVPWNAS-OH; disulfide 21-27)", "values": [{"measurement": "O.D. 450 nm", "setting": "HIV-1 antibodies [1]; Test 314, sample CAP-113 (HIV-1 positive plasma pool diluted 50-fold)", "value": "> 2.8"}, {"measurement": "O.D. 450 nm", "setting": "HIV-1 antibodies [1]; Test 314, sample CAP-114 (HIV-1 positive pool diluted 100-fold)", "value": "> 2.8"}, {"measurement": "O.D. 450 nm", "setting": "HIV-1 antibodies [1]; Test 314, sample CAP-115 (HIV-1 positive pool diluted 200-fold)", "value": "> 2.8"}, {"measurement": "O.D. 450 nm", "setting": "HIV-1 antibodies [1]; Test 314, sample CAP-116 (HIV-1 positive pool, serial dilution)", "value": 2.376}, {"measurement": "O.D. 450 nm", "setting": "HIV-1 antibodies [1]; Test 314, sample CAP-117 (HIV-1 positive pool, serial dilution)", "value": 1.569}, {"measurement": "O.D. 450 nm", "setting": "HIV-1 antibodies [1]; Test 314, sample CAP-118 (HIV-1 positive pool, serial dilution)", "value": 0.934}, {"measurement": "O.D. 450 nm", "setting": "HIV-1 antibodies [1]; Test 314, sample CAP-119 (HIV-1 positive pool, serial dilution)", "value": 0.567}, {"measurement": "O.D. 450 nm", "setting": "HIV-1 antibodies [1]; Test 314, sample CAP-120 (HIV-1 positive pool, serial dilution)", "value": 0.376}, {"measurement": "O.D. 450 nm", "setting": "HIV-1 antibodies [1]; Test 350, sample CAP-10 (progressively higher dilutions)", "value": "> 2.8"}, {"measurement": "O.D. 450 nm", "setting": "HIV-1 antibodies [1]; Test 350, sample CAP-11 (progressively higher dilutions)", "value": "> 2.8"}, {"measurement": "O.D. 450 nm", "setting": "HIV-1 antibodies [1]; Test 350, sample CAP-12 (progressively higher dilutions)", "value": "> 2.8"}, {"measurement": "O.D. 450 nm", "setting": "HIV-1 antibodies [1]; Test 350, sample CAP-13 (progressively higher dilutions)", "value": 2.021}, {"measurement": "O.D. 450 nm", "setting": "HIV-1 antibodies [1]; Test 350, sample CAP-14 (progressively higher dilutions)", "value": 1.248}, {"measurement": "O.D. 450 nm", "setting": "HIV-1 antibodies [1]; Test 350, sample CAP-15 (progressively higher dilutions)", "value": 0.680}, {"measurement": "O.D. 450 nm", "setting": "HIV-1 antibodies [1]; Test 350, sample CAP-16 (progressively higher dilutions)", "value": 0.366}, {"measurement": "O.D. 450 nm", "setting": "HIV-1 antibodies [1]; Test 350, sample CAP-17 (progressively higher dilutions)", "value": 0.198}, {"measurement": "O.D. 450 nm", "setting": "HIV-1 antibodies [1]; Test 350, sample CAP-18 (progressively higher dilutions)", "value": 0.116}, {"measurement": "O.D. 450 nm", "setting": "HIV-1 antibodies [1]; Test 350, sample CAP-19 (progressively higher dilutions)", "value": 0.056}, {"measurement": "O.D. 450 nm", "setting": "HIV-2 antibodies; sample CAP-223 (HIV-2 positive pool diluted by 100)", "value": 0.075}, {"measurement": "O.D. 450 nm", "setting": "HIV-2 antibodies; sample CAP-224 (HIV-2 positive pool, serial dilution)", "value": 0.084}, {"measurement": "O.D. 450 nm", "setting": "HIV-2 antibodies; sample CAP-225 (HIV-2 positive pool, serial dilution)", "value": 0.135}, {"measurement": "O.D. 450 nm", "setting": "HIV-2 antibodies; sample CAP-226 (HIV-2 positive pool, serial dilution)", "value": 0.140}, {"measurement": "O.D. 450 nm", "setting": "HIV-2 antibodies; sample CAP-227 (HIV-2 positive pool, serial dilution)", "value": 0.085}, {"measurement": "O.D. 450 nm", "setting": "HIV-2 antibodies; sample CAP-228 (HIV-2 positive pool, serial dilution)", "value": 0.091}, {"measurement": "O.D. 450 nm", "setting": "HIV-2 antibodies; sample CAP-230 (HIV-2 positive pool, serial dilution)", "value": 0.123}, {"measurement": "O.D. 450 nm", "setting": "HIV antibodies; Test 314, sample BBI-1-162 (negative for HIV antibodies)", "value": 0.028}, {"measurement": "O.D. 450 nm", "setting": "HIV antibodies; Test 314, sample BBI-1-169 (not described)", "value": 0.138}, {"measurement": "O.D. 450 nm", "setting": "HIV antibodies; Test 314, sample BBI-1-172 (not described)", "value": 0.030}, {"measurement": "O.D. 450 nm", "setting": "HIV antibodies; Test 314, sample NEIA-2*2 (negative for HIV antibodies)", "value": 0.069}, {"measurement": "O.D. 450 nm", "setting": "HIV antibodies; Test 350, sample 2-87-L-139 (negative for HIV antibodies)", "value": 0.147}, {"measurement": "O.D. 450 nm", "setting": "HIV antibodies; Test 350, sample 2-87-V-103 (negative for HIV antibodies)", "value": 0.020}, {"measurement": "O.D. 450 nm", "setting": "HIV antibodies; Test 350, sample 89-D-307 (not described)", "value": 0.030}, {"measurement": "O.D. 450 nm", "setting": "HIV antibodies; Test 350, sample NEIA-2*2 (negative for HIV antibodies)", "value": 0.023}]}, {"molecule": "SGKLIC", "values": [{"measurement": "immunoreactivity with HIV-1 positive sera", "setting": "HIV-1 antibodies [2]; Gnann et al. 1987, 22 HIV-1 positive sera tested", "value": "not immunoreactive"}]}, {"molecule": "SGKLICTTAVPWNAS [short synthetic peptide spanning residues 606 to 620 of gp41 (HIV-1)]", "values": [{"measurement": "sensitivity", "setting": "HIV-1 antibodies [2]; U.S. Ser. No. 120,027, 6 of 57 confirmed positive not detected", "value": 89, "unit": "%"}, {"measurement": "specificity", "setting": "HIV-1 antibodies [2]; U.S. Ser. No. 120,027", "value": "63/63"}]}]}
